Measurements as given in patent US12173007B2, “Imidazopyridazine IL-17 inhibitor compounds” (Janssen Pharmaceutica NV, priority 2021, dated 2024).
pIC50: −log10 of the molar value.

Columns and labels:
[1] = tested on: IL-17A-induced G-CSF production in human normal keratinocyte (NHK); assay: NHK assay: IL-17A-induced G-CSF production in normal human keratinocytes; assay type: cell-based; conditions: Homo sapiens, Keratinocyte, 24 h, IL-17A 5 ng/mL, G-CSF by HTRF, average if tested more than once
How it was run: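 Stimulus rhIL-17A 5 ng/mL final, premixed 1 h rt with compound; adult NHK, 5% FBS, 0.2% DMSO. Viability by CellTiter-Glo vs DMSO.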

[2] = biological target: IL-17A(FLAG-Tagged): IL-17RA(His-Tagged) binding (Homo sapiens, UniProt Q16552, K93Q); assay: IL-17A(FLAG-tagged):IL-17RA(His-tagged) binding disruption Eu-HTRF assay, Protocol 2; conditions: FLAG-IL-17A 1 nM; average if tested more than once
Source text: IL-17A(FLAG-Tagged): IL-17RA(His-Tagged) Binding Disruption Eu-HTRF Assay
An antibody directed against the FLAG tag of IL-17A (SEQ ID NO: 1) is labeled with the HTRF donor chromophore (Europium-cryptate). IL-17A is present as a dimer that is “locked into” this quaternary structure due to the formation of loop-spanning […] disulfide bridges. The construct of IL-17RA used in the assay excludes the […] portion of the receptor and is fused to a C-terminal 10×His tag (SEQ ID NO:2). An antibody directed against the His tag of the IL-17RA chimera is labeled with the HTRF acceptor chromophore (“D2”). The fluorescence-resonance energy transfer (FRET) depends on the vicinity of the donor chromophore to the acceptor, and interruption of the binding between the IL-17A and IL-17RA causes the reduction/loss of FRET. Therefore, this assay allows to evaluate the compound effect on the binding IL-17A and IL-17RA by monitoring the fluorescence intensity of donor vs acceptor. The assay was run using either Protocol 1 or Protocol 2 as described below.
Protocol 2. 40 nl of 2-fold serial diluted compound solution for total 22 dilution points is added into each well of a 1536-well, white, low-volume, non-binding plate (Greiner #782904), then 2 μl of FLAG tagged IL-17A at 2×final concentration (1 nM) in solution of PBS+0.01% Triton-X100 is added to each well. The assay plate is briefly centrifuged then incubated for 1 h at rt. A mixed solution is prepared containing 2×5 nM 10HIS×IL-17RA, 2×2.5 nM Eu-anti-FLAG (CISBIO), 2×5 nM D2-anti-HIS (CISBIO) in PBS+0.01% Triton-X100+200 mM Potassium Fluoride (Sigma 60238) and 2 μl of mix is added to each well of the assay plate. The plate is briefly centrifuged then incubated for 2 h at rt. The HTRF intensities at the wavelength of donor (615 nm) and acceptor (665 nm) are measured using BMG Pherastar. The ratio between intensities at two wavelengths is calculated and plotted against the compound concentration and the data is fitted to a one-site competition model to yield IC50 of the compound.

Chain of UniProt Q16552 (Q16552 with tags, fused parts or gaps K93Q): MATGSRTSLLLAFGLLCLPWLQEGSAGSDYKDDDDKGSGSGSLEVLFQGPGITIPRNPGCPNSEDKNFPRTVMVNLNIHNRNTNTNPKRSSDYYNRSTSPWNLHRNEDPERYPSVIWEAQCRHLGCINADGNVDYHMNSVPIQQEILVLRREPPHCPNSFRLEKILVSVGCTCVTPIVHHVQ

Row | Compound | pIC50 [1] | pIC50 [2]
1 | COC[C@H](c1cnn2cc(C(NC(=O)c3nonc3C)C3C[C@H]4CC[C@H]4C3)nc2c1)N1CC(F)(F)CNC1=O (single isomer, unassigned) [Example 132, N-((1S*)-((1R,5S)-Bicyclo[3.2.0]heptan-3-yl)(7-((S)-1-(5,5-difluoro-2-oxotetrahydropyrimidin-1(2H)-yl)-2-methoxyethyl)imidazo[1,2-b]pyridazin-2-yl)methyl)-4-methyl-1,2,5-oxadiazole-3-carboxamide] | > 7.30 | > 7.30
2 | Cc1nonc1C(=O)N[C@@H](CCC(C)(C)C(F)(F)F)c1cn2ncc([C@@H](COC3CC3)N3CC(F)(F)CNC3=O)cc2n1 [Example 56, N—((S)-1-(7-((S)-2-Cyclopropoxy-1-(5,5-difluoro-2-oxotetrahydropyrimidin-1(2H)-yl)ethyl)imidazo[1,2-b]pyridazin-2-yl)-5,5,5-trifluoro-4,4-dimethylpentyl)-4-methyl-1,2,5-oxadiazole-3-carboxamide] | > 7.30 | > 7.30
3 | [2H]C1([2H])NC(=O)N([C@H](COC2CC2)c2cnn3cc([C@@H](NC(=O)c4nonc4OC)C4CCC(F)(F)CC4)nc3c2)C([2H])([2H])C1(F)F [Example 69, N—((S)-(7-((S)-2-Cyclopropoxy-1-(5,5-difluoro-2-oxotetrahydropyrimidin-1(2H)-yl-4,4,6,6-d4)ethyl)imidazo[1,2-b]pyridazin-2-yl)(4,4-difluorocyclohexyl)methyl)-4-methoxy-1,2,5-oxadiazole-3-carboxamide] | > 7.30 | > 7.30
4 | [2H]C1([2H])NC(=O)N([C@H](COC2CC2)c2cnn3cc([C@@H](NC(=O)c4nonc4CC)C4CCC(F)(F)CC4)nc3c2)C([2H])([2H])C1(F)F [Example 70, N—((S)-(7-((S)-2-Cyclopropoxy-1-(5,5-difluoro-2-oxotetrahydropyrimidin-1(2H)-yl-4,4,6,6-d4)ethyl)imidazo[1,2-b]pyridazin-2-yl)(4,4-difluorocyclohexyl)methyl)-4-ethyl-1,2,5-oxadiazole-3-carboxamide] | > 7.30 | > 7.30
5 | [2H]C1([2H])NC(=O)N([C@H](COC2CC2)c2cnn3cc([C@@H](NC(=O)c4ccnn4C(C)C)C4CCC(F)(F)CC4)nc3c2)C([2H])([2H])C1(F)F [Example 71, N—((S)-(7-((S)-2-Cyclopropoxy-1-(5,5-difluoro-2-oxotetrahydropyrimidin-1(2H)-yl-4,4,6,6-d4)ethyl)imidazo[1,2-b]pyridazin-2-yl)(4,4-difluorocyclohexyl)methyl)-1-isopropyl-1H-pyrazole-5-carboxamide] | > 7.30 | > 7.30
6 | [2H]C1([2H])NC(=O)N([C@H](COC)c2cnn3cc([C@@H](NC(=O)c4nonc4C4CC4)C4CCC(F)(F)CC4)nc3c2)C([2H])([2H])C1(F)F [Example 72, 4-Cyclopropyl-N—((S)-(7-((S)-1-(5,5-difluoro-2-oxotetrahydropyrimidin-1(2H)-yl-4,4,6,6-d4)-2-methoxyethyl)imidazo[1,2-b]pyridazin-2-yl)(4,4-difluorocyclohexyl)methyl)-1,2,5-oxadiazole-3-carboxamide] | > 7.30 | > 7.30
7 | [2H]C1([2H])NC(=O)N([C@H](COC)c2cnn3cc([C@H](CCC(C)(C)C(F)(F)F)NC(=O)c4nonc4OC)nc3c2)C([2H])([2H])C1(F)F [Example 73, N—((S)-1-(7-((S)-1-(5,5-Difluoro-2-oxotetrahydropyrimidin-1(2H)-yl-4,4,6,6-d4)-2-methoxyethyl)imidazo[1,2-b]pyridazin-2-yl)-5,5,5-trifluoro-4,4-dimethylpentyl)-4-methoxy-1,2,5-oxadiazole-3-carboxamide] | > 7.30 | > 7.30
8 | [2H]C1([2H])NC(=O)N([C@H](COC)c2cnn3cc([C@H](CCC(C)(C)C(F)(F)F)NC(=O)c4nonc4C)nc3c2)C([2H])([2H])C1(F)F [Example 74, N—((S)-1-(7-((S)-1-(5,5-Difluoro-2-oxotetrahydropyrimidin-1(2H)-yl-4,4,6,6-d4)-2-methoxyethyl)imidazo[1,2-b]pyridazin-2-yl)-5,5,5-trifluoro-4,4-dimethylpentyl)-4-methyl-1,2,5-oxadiazole-3-carboxamide] | > 7.30 | > 7.30
9 | [2H]C1([2H])NC(=O)N([C@H](COC2CC2)c2cnn3cc([C@H](CCC(C)(C)C(F)(F)F)NC(=O)c4nonc4OC)nc3c2)C([2H])([2H])C1(F)F [Example 75, N—((S)-1-(7-((S)-2-Cyclopropoxy-1-(5,5-difluoro-2-oxotetrahydropyrimidin-1(2H)-yl-4,4,6,6-d4)ethyl)imidazo[1,2-b]pyridazin-2-yl)-5,5,5-trifluoro-4,4-dimethylpentyl)-4-methoxy-1,2,5-oxadiazole-3-carboxamide] | > 7.30 | > 7.30
10 | [2H]C1([2H])NC(=O)N([C@H](COC2CC2)c2cnn3cc([C@H](CCC(C)(C)C(F)(F)F)NC(=O)c4nonc4C)nc3c2)C([2H])([2H])C1(F)F [Example 76, N—((S)-1-(7-((S)-2-Cyclopropoxy-1-(5,5-difluoro-2-oxotetrahydropyrimidin-1(2H)-yl-4,4,6,6-d4)ethyl)imidazo[1,2-b]pyridazin-2-yl)-5,5,5-trifluoro-4,4-dimethylpentyl)-4-methyl-1,2,5-oxadiazole-3-carboxamide] | > 7.30 | > 7.30
11 | COc1nonc1C(=O)N[C@H](c1cn2ncc([C@@H](COC3CC3)N3CC(F)(F)CNC3=O)cc2n1)C1CCC(F)(F)CC1 [Example 77, N—((S)-(7-((S)-2-Cyclopropoxy-1-(5,5-difluoro-2-oxotetrahydropyrimidin-1(2H)-yl)ethyl)imidazo[1,2-b]pyridazin-2-yl)(4,4-difluorocyclohexyl)methyl)-4-methoxy-1,2,5-oxadiazole-3-carboxamide] | > 7.30 | > 7.30
12 | O=C(N[C@H](c1cn2ncc([C@@H](COC3CC3)N3CC(F)(F)CNC3=O)cc2n1)C1CCC(F)(F)CC1)c1nonc1C(F)F [Example 78, N—((S)-(7-((S)-2-Cyclopropoxy-1-(5,5-difluoro-2-oxotetrahydropyrimidin-1(2H)-yl)ethyl)imidazo[1,2-b]pyridazin-2-yl)(4,4-difluorocyclohexyl)methyl)-4-(difluoromethyl)-1,2,5-oxadiazole-3-carboxamide] | > 7.30 | > 7.30
13 | COC[C@H](c1cnn2cc([C@@H](NC(=O)c3nonc3C(F)F)C3CCC(F)(F)CC3)nc2c1)N1CC(F)(F)CNC1=O [Example 79, N—((S)-(7-((S)-1-(5,5-Difluoro-2-oxotetrahydropyrimidin-1(2H)-yl)-2-methoxyethyl)imidazo[1,2-b]pyridazin-2-yl)(4,4-difluorocyclohexyl)methyl)-4-(difluoromethyl)-1,2,5-oxadiazole-3-carboxamide] | > 7.30 | > 7.30
14 | [2H]C1([2H])NC(=O)N([C@H](COC)c2cnn3cc([C@H](CCC(C)(C)C(F)(F)F)NC(=O)c4nonc4C4CC4)nc3c2)C([2H])([2H])C1(F)F [Example 80, 4-Cyclopropyl-N—((S)-1-(7-((S)-1-(5,5-difluoro-2-oxotetrahydropyrimidin-1(2H)-yl-4,4,6,6-d4)-2-methoxyethyl)imidazo[1,2-b]pyridazin-2-yl)-5,5,5-trifluoro-4,4-dimethylpentyl)-1,2,5-oxadiazole-3-carboxamide] | > 7.30 | > 7.30
15 | [2H]C1([2H])NC(=O)N([C@H](COC)c2cnn3cc([C@H](CCC(C)(C)C(F)(F)F)NC(=O)c4nonc4C(F)F)nc3c2)C([2H])([2H])C1(F)F [Example 81, N—((S)-1-(7-((S)-1-(5,5-Difluoro-2-oxotetrahydropyrimidin-1(2H)-yl-4,4,6,6-d4)-2-methoxyethyl)imidazo[1,2-b]pyridazin-2-yl)-5,5,5-trifluoro-4,4-dimethylpentyl)-4-(difluoromethyl)-1,2,5-oxadiazole-3-carboxamide] | > 7.30 | > 7.30
